Patent US20250002450A1, “CATIONIC STEROID COMPOUNDS, METHOD OF OBTAINING THEREOF, FORMULATIONS COMPRISING THEREOF AND THEIR USES” (UNIVERSIDADE DO PORTO, priority 2021, published 2025)
≈ marks a conversion by molar mass, not a printed value.

What was measured:
[1] = tested on: Streptococcuss pyogenes ATCC 19615; experiment: Antibacterial MIC/MBC (broth microdilution); type: cell-based, Streptococcus pyogenes; details: for MBC / MIC: Streptococcus pyogenes, ATCC19615, Streptococcuss pyogenes ATCC 19615; for MBC: read-out: MBC; for MIC: read-out: MIC
Text: (§1) Twelve reference bacterial strains and nine MDR clinically relevant bacterial strains were used in this study. Gram-negative bacteria comprised reference strains E. coli ATCC 25922, K. pneumoniae ATCC 13883, Salmonella enterica serovar Typhimurium CECT 443, P. aeruginosa ATCC 27853, A. baumannii ATCC 19606, C. jejuni ATCC 33560 (ATCC—American Type Culture Collection; CECT—Colección Espanola de Cultivos Tipo); clinical isolates E. coli SA/2, an extended-spectrum β-lactamase (ESBL)-producing strain and P. aeruginosa 33b, a pan-drug-resistant isolate; and animal isolates C. jejuni P5/4, a ciprofloxacin-resistant strain, C. jejuni 4432, C. jejuni 4433, C. jejuni 4448, and E. coli 2252, a COL-resistant strain [42]. Gram-positive strains included S. aureus ATCC 29213, E. faecalis ATCC 29212, S. pyogenes ATCC 19615, and environmental isolates methicillin-resistant S. aureus (MRSA) 66/1 [43], and VAN-resistant enterococci (VRE) E. faecalis B3/101 [44]. Gram-negative fish pathogens Yersinia ruckeri ATCC 29473, Listonella anguillarum ATCC 1924, and Tenacibaculum maritimum ATCC 43397 were also included.
(§2) Strains were kept in Trypto-Casein Soy agar (TSA—Biokar Diagnostics, Allone, Beauvais, France) slants and, before each assay, were sub-cultured in Mueller-Hinton agar (MHA—Biokar Diagnostics, Allone, Beauvais, France). Y. ruckeri ATCC 29473 and L. anguillarum ATCC 1924 were kept in Nutrient Agar (Condalab, Madrid, Spain) and T. maritimum ATCC 43397 was kept in TMM agar (Condalab, Madrid, Spain), and were sub-cultured in the respective culture media before each assay. For S. pyogenes ATCC 19615, CAMHB was supplemented with 3.75% lysed horse blood (LBH—Oxoid, Basingstoke, England), whereas for C. jejuni it was supplemented with 2.5% LHB. Colony-forming unit counts of the inoculum were conducted to determine the initial inoculum size (which should be approximately 5×10^5 CFU/mL). Sterility and growth controls were included in each assay. The 96-well U-shaped untreated polystyrene microtiter plates were incubated for 20 h at 37 degrees C. (42 degrees C. for C. jejuni, in a microaerophilic atmosphere) and the minimal inhibitory concentration (MIC) was determined as the lowest concentration of compound that prevented visible growth. The minimal bactericidal concentration (MBC) was determined by spreading 100 μL of the content of the wells with no visible growth on MH plates. The MBC was determined as the lowest concentration of compound that killed 99.9% of the initial inoculum after overnight incubation at 37 degrees C. Two independent assays were performed for reference and MDR strains.
(§3) An initial screening of the antibacterial activity of the compounds was performed by the Kirby-Bauer disk diffusion method, as recommended by the Clinical and Laboratory Standards Institute (CLSI). Briefly, sterile 6 mm blank paper disks (Oxoid, Basingstoke, England) impregnated with 15 μg of each compound were placed on inoculated MH agar plates. A blank disk with dimethylsulfoxide (DMSO) was used as a negative control. MH inoculated plates were incubated for 18-20 h at 37 degrees C. At the end of incubation, the inhibition halos where measured. The MIC was used to determine the antibacterial activity of each compound, in accordance with the recommendations of the CLSI. Two-fold serial dilutions of the compounds were prepared in Mueller-Hinton Broth 2 (MHB2—Sigma-Aldrich, St. Louis, MO, USA) within the concentration range of 0.062-64 μg/mL. CTX ranging between 0.031-16 μg/mL was used as a control. Sterility and growth controls were included in each assay. Purity checks and colony counts of the inoculum suspensions were also performed in order to ensure that the final inoculum density closely approximates the intended number (5×10^5 CFU/mL). The MIC was determined as the lowest concentration of compound that inhibited growth of the bacteria. The MBC was assessed by spreading 10 μL of culture collected from wells showing no visible growth on MH agar plates. […]

[2] = tested on: Tenacibaculum maritimum ATCC 43397; experiment: Antibacterial disk diffusion; type: cell-based; details: Tenacibaculum maritimum ATCC 43397, footnote *
Text: as §1, §2, §3

[3] = tested on: E. coli 2252 (COL-resistant); experiment: Antibacterial MIC/MBC (broth microdilution); type: cell-based, Escherichia coli; details: Escherichia coli, E. coli 2252 (COL-resistant); for MBC: read-out: MBC; for MIC: read-out: MIC
Text: as §1, §2, §3

[4] = tested on: E. coli SA/2 (ESBL); experiment: Antibacterial MIC/MBC (broth microdilution); type: cell-based, Escherichia coli; details: Escherichia coli
Text: as §1, §2, §3

[5] = tested on: Yersinia ruckeri ATCC 29473; experiment: Antibacterial MIC/MBC (broth microdilution); type: cell-based; details: for MBC: ATCC29473, read-out: MBC; for MIC: ATCC29473, read-out: MIC
Text: as §1, §2, §3

[6] = tested on: Listonella anguilarum ATCC 1924; experiment: Antibacterial MIC/MBC (broth microdilution); type: cell-based; details: Listonella anguilarum ATCC 1924; for MBC: read-out: MBC; for MIC: read-out: MIC
Text: as §1, §2, §3

[7] = tested on: Staphylococcus aureus ATCC 29213; experiment: Antibacterial MIC/MBC (broth microdilution); type: cell-based; details: for MBC: ATCC29213, read-out: MBC; for MIC: ATCC29213, read-out: MIC
Text: as §1, §2, §3

[8] = tested on: Acinetobacter baumannii ATCC 19606; experiment: Antibacterial MIC/MBC (broth microdilution); type: cell-based; details: ATCC19606, Acinetobacter baumannii ATCC 19606; for MBC: read-out: MBC; for MIC: read-out: MIC
Text: as §1, §2, §3

[9] = tested on: Enterococcuss faecalis ATCC 29212; experiment: Antibacterial MIC/MBC (broth microdilution); type: cell-based, Enterococcus faecalis; details: for MBC / MIC: Enterococcus faecalis, ATCC29212, Enterococcuss faecalis ATCC 29212; for MBC: read-out: MBC; for MIC: read-out: MIC
Text: as §1, §2, §3

[10] = tested on: E. faecalis B3/101 (VRE); experiment: Antibacterial MIC/MBC (broth microdilution); type: cell-based, Enterococcus faecalis; details: Enterococcus faecalis, E. faecalis B3/101 (VRE); for MBC: read-out: MBC; for MIC: read-out: MIC
Text: as §1, §2, §3

[11] = tested on: C. jejuni 4432; experiment: Antibacterial MIC/MBC (broth microdilution); type: cell-based, Campylobacter jejuni; details: for MBC / MIC: Campylobacter jejuni; for MBC: read-out: MBC; for MIC: read-out: MIC
Text: as §1, §2, §3

[12] = tested on: C. jejuni 4433; experiment: Antibacterial MIC/MBC (broth microdilution); type: cell-based, Campylobacter jejuni; details: for MBC / MIC: Campylobacter jejuni; for MBC: read-out: MBC; for MIC: read-out: MIC
Text: as §1, §2, §3

[13] = tested on: C. jejuni 4448; experiment: Antibacterial MIC/MBC (broth microdilution); type: cell-based, Campylobacter jejuni; details: for MBC / MIC: Campylobacter jejuni; for MBC: read-out: MBC; for MIC: read-out: MIC
Text: as §1, §2, §3

[14] = tested on: C. jejuni P5/4; experiment: Antibacterial MIC/MBC (broth microdilution); type: cell-based, Campylobacter jejuni; details: Campylobacter jejuni; for MBC: read-out: MBC; for MIC: read-out: MIC
Text: as §1, §2, §3

[15] = tested on: P. aeruginosa 33b (PDR); experiment: Antibacterial MIC/MBC (broth microdilution); type: cell-based, Pseudomonas aeruginosa; details: Pseudomonas aeruginosa, P. aeruginosa 33b (PDR); for MBC: read-out: MBC; for MIC: read-out: MIC
Text: as §1, §2, §3

[16] = tested on: S. aureus 66/1 (MRSA); experiment: Antibacterial MIC/MBC (broth microdilution); type: cell-based, Staphylococcus aureus; details: Staphylococcus aureus; for MBC: read-out: MBC; for MIC: read-out: MIC
Text: as §1, §2, §3

`C[C@H](CCC(=O)N1CCCCC1)[C@H]1CC[C@H]2[C@@H]3CC[C@@H]4C[C@H](O)CC[C@]4(C)[C@H]3C[C@H](O)[C@]12C` [Compound 2, (R)-4-((3R,5R,8R,9S,10S,12S,13R,14S,17R)-3,12-dihydroxy-10,13-dimethylhexadecahydro-1H-cyclopenta[a]phenanthren-17-yl)-1-(piperidin-1-yl) pentan-1-one] was tested, and the “antibacterial activity (in words)” value ([1]; S. pyogenes ATCC 19615) was “active”, the MBC [1] was 32 µg/mL (≈ 69.6 µM) and the MIC [1] was 32 µg/mL (≈ 69.6 µM). The “Inhibition zone diameter (disk diffusion)” value [2] was 18 mm, the MBC [3] was over 64 µg/mL and the MIC [3] was over 64 µg/mL. The MBC [4] was over 64 µg/mL, the MIC [4] was over 64 µg/mL and the MBC [5] was over 64 µg/mL. The MIC [5] was over 64 µg/mL, the MBC [6] was over 64 µg/mL and the MIC [6] was over 64 µg/mL. The MBC [7] was over 64 µg/mL, the MIC [7] was 32 µg/mL (≈ 69.6 µM) and the MBC [8] was over 64 µg/mL. The MIC [8] was over 64 µg/mL, the “antibacterial activity (in words)” value ([9]; E. faecalis ATCC 29212) was “exhibited antimicrobial activity” and the MBC [9] was over 64 µg/mL. The MIC [9] was 32 µg/mL (≈ 69.6 µM), the MBC [10] was over 64 µg/mL and the MIC [10] was over 64 µg/mL. The “antibacterial activity (in words)” value [11] was “showed antimicrobial activity”, the MBC [11] was over 64 µg/mL and the MIC [11] was 64 µg/mL (≈ 139 µM). The “antibacterial activity (in words)” value [12] was “showed antimicrobial activity”, the MBC [12] was over 64 µg/mL and the MIC [12] was over 64 µg/mL. The “antibacterial activity (in words)” value [13] was “showed antimicrobial activity”, the MBC [13] was over 64 µg/mL and the MIC [13] was over 64 µg/mL. It also gave an MBC [14] of over 64 µg/mL, an MIC [14] of over 64 µg/mL and an MBC [15] of over 64 µg/mL. It also gave an MIC [15] of over 64 µg/mL, an MBC [16] of over 64 µg/mL and an MIC [16] of 32 µg/mL (≈ 69.6 µM).

In the case of `C[C@H](CCC(=O)N1CCN(C(=O)OC(C)(C)C)CC1)[C@H]1CC[C@H]2[C@@H]3CC[C@@H]4C[C@H](O)CC[C@]4(C)[C@H]3C[C@H](O)[C@]12C` [Compound 5, tert-butyl 4-((R)-4-((3R,5R,8R,9S,10S,12S,13R,14S,17R)-3,12-dihydroxy-10,13-dimethylhexadecahydro-1H-cyclopenta[a]phenanthren-17-yl)pentanoyl)piperazine-1-carboxylate], the MBC [1] is reported as over 64 µg/mL, the MIC [1] is reported as over 64 µg/mL and the “Inhibition zone diameter (disk diffusion)” value [2] is reported as 10 mm. It also gave an MBC [3] of over 64 µg/mL, an MIC [3] of over 64 µg/mL and an MBC [4] of over 64 µg/mL. It also gave an MIC [4] of over 64 µg/mL, an MBC [5] of over 64 µg/mL and an MIC [5] of over 64 µg/mL. The MBC [6] was over 64 µg/mL, the MIC [6] was over 64 µg/mL and the MBC [7] was over 64 µg/mL. For the same compound, the MIC [7] was 16 µg/mL (≈ 28.5 µM), the MBC [8] was over 64 µg/mL and the MIC [8] was over 64 µg/mL. For the same compound, the MBC [9] was over 64 µg/mL, the MIC [9] was over 64 µg/mL and the MBC [10] was over 64 µg/mL. It also gave an MIC [10] of over 64 µg/mL, an MBC [11] of over 64 µg/mL and an MIC [11] of over 64 µg/mL. For the same compound, the MBC [12] was over 64 µg/mL, the MIC [12] was over 64 µg/mL and the MBC [13] was over 64 µg/mL. For the same compound, the MIC [13] was over 64 µg/mL, the MBC [14] was over 64 µg/mL and the MIC [14] was over 64 µg/mL. For the same compound, the MBC [15] was over 64 µg/mL, the MIC [15] was over 64 µg/mL and the MBC [16] was over 64 µg/mL. For the same compound, the MIC [16] was 64 µg/mL (≈ 114 µM).
